Experimental data: US20160296499A1, “Spiroindoline Antiparasitic Derivatives” (ZOETIS SERVICES LLC, priority 2013, published 2016)
Read-outs that look alike come from different tables or passages of the source.

Columns and labels:
[1] = target: T1, bovine vesicular acetylcholine transporter (VAChT) (Bos taurus, UniProt E1BK36); assay: Radioligand Binding Assay; conditions: Bovine binding Ki, CHO-K1 membranes with recombinant bovine VAChT, [3H]Compound X6 0.3 nM
T1 sequence (E1BK36 1-524): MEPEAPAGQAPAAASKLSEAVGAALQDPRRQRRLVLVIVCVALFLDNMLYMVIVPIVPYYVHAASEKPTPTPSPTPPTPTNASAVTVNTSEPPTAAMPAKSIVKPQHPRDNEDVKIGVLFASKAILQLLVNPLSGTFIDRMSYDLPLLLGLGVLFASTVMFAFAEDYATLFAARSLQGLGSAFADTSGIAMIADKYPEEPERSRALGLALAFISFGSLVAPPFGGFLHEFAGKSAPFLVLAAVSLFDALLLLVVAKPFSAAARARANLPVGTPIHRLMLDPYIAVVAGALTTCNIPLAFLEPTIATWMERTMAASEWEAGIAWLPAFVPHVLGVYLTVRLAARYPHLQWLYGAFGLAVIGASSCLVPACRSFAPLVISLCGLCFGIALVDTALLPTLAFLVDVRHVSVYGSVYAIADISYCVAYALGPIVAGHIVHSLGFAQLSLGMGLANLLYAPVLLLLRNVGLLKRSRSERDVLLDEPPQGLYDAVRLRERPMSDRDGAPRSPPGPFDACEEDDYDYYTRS
Description: To measure binding affinity, CHO-K1 cells recombinantly expressing the bovine VAChT was generated as a stable cell line and subsequently used to produce membrane preparations.
Radioligand binding assays were conducted in disposable polypropylene 96-well plates. VAChT competition assays were initiated by the addition of bovine recombinant membrane homogenate (50 μg/well) in assay buffer (50 mM Tris-HCl, 120 mM NaCl, 5 mM KCl, 1 mM MgCl, and 2 mM CaCl, pH 7.4) containing [^3H]Compound X6 (0.3 nM) with or without competing ligand. The assay was allowed to equilibrate for 120 minutes at room temperature, before being filtered onto GF/C unifilter plates pre-coated in 0.3% polyethylenimine (Perkin Elmer Life and Analytical Sciences, Boston, Mass.) with a Filtermate 96 harvester (PerkinElmer Life and Analytical Sciences). Filters were washed in ice-cold 50 mM Tris-HCl, pH 7.4 buffer and then counted for radioactivity in a TopCount microplate scintillation counter after addition of 50 μL Microscint 20 (PerkinElmer). Non-specific binding was measured in the presence of 10 μM Compound X6. Apparent dissociation constants (Ki values) from the competition experiments were calculated using an iterative nonlinear regression curve-fitting program (GraphPAD Prism 6.0 Software, San Diego, Calif.) and are reported in Table 2.

[2] = test system: Dirofilaria immitis microfilariae; assay: Dirofilaria immitis, Microfilariae (DiMF) In Vitro Assay; conditions: Dirofilaria immitis
Haemonchus contortus L3 = assay: Haemonchus contortus, Larvae Stage 3 (HcL3) In Vitro Assay; conditions: Haemonchus contortus
[3] = 72 h, read-out: Di MF, MEC, decrease in microfilariae motility by visual assessment, curve starting at 100 μM
[4] = 96 h, read-out: HcL3 MEC, Minimal Effective Concentration whereby worm motility is inhibited by approximately 70%, 37° C., tested 0.001-100 μM
[5] = 96 hours, 37° C., read-out: HcL3 MEC

Compound	Ki [1] [µM]	minimal effective concentration [2, 3] [µM]	minimal effective concentration (Haemonchus contortus L3; [4]) [µM]	minimal effective concentration ([2]; 72 hours, read-out: Di MF) [µM]	minimal effective concentration (Haemonchus contortus L3; [5]) [µM]
O=C(NCc1ccnc(F)c1)N1CC2(CCN(C/C=C/c3ccc(C(F)(F)F)cc3)CC2)c2cc(Br)ccc21 [Example 107, 5-bromo-N-[(2-fluoro-4-pyridyl)methyl]-1′-[(E)-3-[4-(trifluoromethyl)phenyl]allyl]spiro[indoline-3,4′-piperidine]-1-carboxamide]	0.486	3.3	3.3	–	–
N#Cc1cccc(-c2ccc3c(c2)C2(CCN(C/C=C/c4ccc(Cl)c(Cl)c4)CC2)CN3C(=O)NCc2ccnc(F)c2)c1 [Example 108, 5-(3-cyanophenyl)-1′-[(E)-3-(3,4-dichlorophenyl)allyl]-N-[(2-fluoro-4-pyridyl)methyl]spiro[indoline-3,4′-piperidine]-1-carboxamide]	32.6	3.3	100	–	–
N#Cc1ccc(-c2ccc3c(c2)C2(CCN(C/C=C/c4ccc(Cl)cc4)CC2)CN3C(=O)NCc2ccnc(F)c2)cn1 [Example 109, 1′-[(E)-3-(4-chlorophenyl)allyl]-5-(6-cyano-3-pyridyl)-N-[(2-fluoro-4-pyridyl)methyl]spiro[indoline-3,4′-piperidine]-1-carboxamide]	0.0508	1.8	3.3	–	–
O=C(NCc1ccnc(F)c1)N1CC2(CCN(C/C=C/c3ccc(Cl)c(Cl)c3)CC2)c2cc(-c3cccnc3)ccc21 [Example 110, 1′-[(E)-3-(3,4-dichlorophenyl)allyl]-N-[(2-fluoro-4-pyridyl)methyl]-5-(3-pyridyl)spiro[indoline-3,4′-piperidine]-1-carboxamide]	7.82	3.3	69.1	–	–
O=C(NCc1ccnc(F)c1)N1CC2(CCN(C/C=C/c3ccc(Cl)c(Cl)c3)CC2)c2cc(-c3cn[nH]c3)ccc21 [Example 111, 1′-[(E)-3-(3,4-dichlorophenyl)allyl]-N-[(2-fluoro-4-pyridyl)methyl]-5-(1H-pyrazol-4-yl)spiro[indoline-3,4′-piperidine]-1-carboxamide]	3.38	10	100	–	–
O=C(NCc1ccnc(F)c1)N1CC2(CCN(C/C=C/c3ccc(Cl)c(Cl)c3)CC2)c2cc(-c3cncnc3)ccc21 [Example 112, 1′-[(E)-3-(3,4-dichlorophenyl)allyl]-N-[(2-fluoro-4-pyridyl)methyl]-5-pyrimidin-5-yl-spiro[indoline-3,4′-piperidine]-1-carboxamide]	3.34	4.4	100	–	–
N#Cc1ccc2c(c1)C1(CCN(C/C=C/c3ccc(Cl)c(Cl)c3)CC1)CN2C(=O)NCc1ccnc(F)c1 [Example 113, 5-cyano-1′-[(E)-3-(3,4-dichlorophenyl)allyl]-N-[(2-fluoro-4-pyridyl)methyl]spiro[indoline-3,4′-piperidine]-1-carboxamide]	0.0668	2.4	1	–	–
Cc1cccc2c1C1(CCN(C/C=C/c3ccc(Cl)c(Cl)c3)CC1)CN2C(=O)NCc1ccnc(F)c1 [Example 114, 1′-[(E)-3-(3,4-dichlorophenyl)allyl]-N-[(2-fluoro-4-pyridyl)methyl]-4-methyl-spiro[indoline-3,4′-piperidine]-1-carboxamide]	0.241	10	5.7	–	–
N#Cc1cncc(-c2ccc3c(c2)C2(CCN(C/C=C/c4ccc(Cl)cc4)CC2)CN3C(=O)NCc2ccnc(F)c2)c1 [Example 115, 1′-[(E)-3-(4-chlorophenyl)allyl]-5-(5-cyano-3-pyridyl)-N-[(2-fluoro-4-pyridyl)methyl]spiro[indoline-3,4′-piperidine]-1-carboxamide]	3.93	7.6	100	–	–
N#Cc1ccc(-c2ccc3c(c2)C2(CCN(C/C=C/c4ccc(Cl)c(Cl)c4)CC2)CN3C(=O)NCc2ccnc(F)c2)cn1 [Example 116, 5-(6-cyano-3-pyridyl)-1′-[(E)-3-(3,4-dichlorophenyl)allyl]-N-[(2-fluoro-4-pyridyl)methyl]spiro[indoline-3,4′-piperidine]-1-carboxamide]	0.0585	4	5	–	–
COc1ccc2ccc(CN3CCC4(CC3)CN(C(=O)NCc3ccnc(F)c3)c3ccc(C#N)cc34)c(C)c2n1 [Example 117, 5-cyano-N-[(2-fluoro-4-pyridyl)methyl]-1′-[(2-methoxy-8-methyl-7-quinolyl)methyl]spiro[indoline-3,4′-piperidine]-1-carboxamide]	0.191	10	10	–	–
COc1ccc2ccc(CN3CCC4(CC3)CN(C(=O)NCc3ccnc(Cl)c3)c3ccc(C#N)cc34)c(C)c2n1 [Example 118, N-[(2-chloro-4-pyridyl)methyl]-5-cyano-1′-[(2-methoxy-8-methyl-7-quinolyl)methyl]spiro[indoline-3,4′-piperidine]-1-carboxamide]	0.0284	57.4	3.3	–	–
COc1ccc(-c2ccc3c(c2)C2(CCN(C/C=C/c4ccc(Cl)cc4)CC2)CN3C(=O)NCc2ccnc(Cl)c2)cn1 [Example 119, 1′-[(E)-3-(4-chlorophenyl)allyl]-N-[(2-chloro-4-pyridyl)methyl]-5-(6-methoxy-3-pyridyl)spiro[indoline-3,4′-piperidine]-1-carboxamide]	0.177	10	100	–	–
N#Cc1ccc(-c2ccc3c(c2)C2(CCN(C/C=C/c4ccc(C(F)(F)F)cc4)CC2)CN3C(=O)NCc2ccnc(Cl)c2)cn1 [Example 120, N-[(2-chloro-4-pyridyl)methyl]-5-(6-cyano-3-pyridyl)-1′-[(E)-3-[4-(trifluoromethyl)phenyl]allyl]spiro[indoline-3,4′-piperidine]-1-carboxamide]	13.9	1.2	100	–	–
O=C(NCc1ccnc(Cl)c1)N1CC2(CCN(C/C=C/c3ccc(Cl)cc3)CC2)c2c(OC(F)(F)F)ccc(Cl)c21 [Example 121, (E)-7-chloro-1′-(3-(4-chlorophenyl)allyl)-N-((2-chloropyridin-4-yl)methyl)-4-(trifluoromethoxy)spiro[indoline-3,4′-piperidine]-1-carboxamide]	1.26	6.9	100	–	–
O=C(NCc1ccnc(Cl)c1)N1CC2(CCN(C/C=C/c3ccc(Cl)cc3)CC2)c2c(F)cc(C(F)(F)F)cc21 [Example 122, (E)-1′-(3-(4-chlorophenyl)allyl)-N-((2-chloropyridin-4-yl)methyl)-4-fluoro-6-(trifluoromethyl)spiro[indoline-3,4′-piperidine]-1-carboxamide]	0.0323	–	–	10	0.5
Cc1ccc2c(c1)C1(CCN(C/C=C/c3ccc(Cl)c(Cl)c3)CC1)CN2C(=O)NCc1ccnc(Cl)c1 [Example 123, (E)-N-((2-chloropyridin-4-yl)methyl)-1′-(3-(3,4-dichlorophenyl)allyl)-5-methylspiro[indoline-3,4′-piperidine]-1-carboxamide]	0.0208	–	–	10.2	1
O=C(NCc1ccnc(Cl)c1)N1CC2(CCN(C/C=C/c3ccc(C(F)(F)F)cn3)CC2)c2ccc(C(F)(F)F)cc21 [Example 124, (E)-N-((2-chloropyridin-4-yl)methyl)-6-(trifluoromethyl)-1′-(3-(5-(trifluoromethyl)pyridin-2-yl)allyl)spiro[indoline-3,4′-piperidine]-1-carboxamide]	0.106	10	1	–	–
COc1ccc(/C=C/CN2CCC3(CC2)CN(C(=O)NCc2ccnc(Cl)c2)c2cc(C(F)(F)F)ccc23)cc1 [Example 125, (E)-N-((2-chloropyridin-4-yl)methyl)-1′-(3-(4-methoxyphenyl)allyl)-6-(trifluoromethyl)spiro[indoline-3,4′-piperidine]-1-carboxamide]	0.0204	10	1	–	–
O=C(NCc1ccnc(Cl)c1)N1CC2(CCN(C/C=C/c3ccc(Cl)cc3)CC2)c2cc(F)c(C(F)(F)F)cc21 [Example 126, (E)-1′-(3-(4-chlorophenyl)allyl)-N-((2-chloropyridin-4-yl)methyl)-5-fluoro-6-(trifluoromethyl)spiro[indoline-3,4′-piperidine]-1-carboxamide]	0.033	–	–	10	1
O=C(NCc1ccnc(F)c1)N1CC2(CCN(C/C=C/c3ccc(Cl)cc3)CC2)c2ccc(OC(F)(F)F)cc21 [Example 127, (E)-1′-(3-(4-chlorophenyl)allyl)-N-((2-fluoropyridin-4-yl)methyl)-6-(trifluoromethoxy)spiro[indoline-3,4′-piperidine]-1-carboxamide]	0.0784	10	1	–	–
